For one assay, the target named is human P2X4 receptor (Homo sapiens (Human), UniProt Q99571). Description: P2X4 receptor antagonist activity (ATP-induced intracellular calcium, Fura-2 AM). Type of assay: cell-based. The following applies: 1321N1 cells stably expressing human P2X4 receptor; test substance 15 minutes before addition of ATP; Fura-2 AM F340/F380; read-out: Inhibitory activity IC50. The protocol:
The ATP receptor (human P2X4) was introduced into the 1321N1 cells, and the cells were used as a stable ATP receptor expression system. The P2X4-expressing 1321N1 cells were seeded on a 96-well plate, cultured under the conditions of 37° C. and 5% CO2 for 24 hours, and used for calcium measurement. […] For the measurement, a microplate reader, Fluostar Optima (BMG Labtech), was used. The light emitted from a xenon lamp was passed through 340 nm and 380 nm filters, respectively, and irradiated on the cells, fluorescences of 510 nm, F340 and F380, emitted from the cells were measured, and change of the ratio F340/F380 was used as an index of change of intracellular calcium level. The measurement was performed by adding ATP to each well at a final concentration of 1 μM, and observing the ATP-induced Ca^2+ response over time.
The 1321N1 cells stably expressing human P2X4 receptor were seeded on a 96-well plate, cultured under the conditions of 37° C. and 5% CO2 for 24 hours, and then used for intracellular calcium measurement. Fura-2 AM, which is a calcium fluorescent indicator, was used for the intracellular calcium measurement. […] The ratio of fluorescence values obtained with excitation lights of 340 nm and 380 nm was used as an index of the change of intracellular calcium level, and the inhibitory activity of the test substance was calculated on the basis of the comparison with the value obtained in the absence of the test substance (control).
Background: Calcium flux is commonly read through the fluorescence of an indicator in the cells.

Assay [1] concerns mouse neuropathic pain model. Nature of the assay: Analgesic activity in mouse neuropathic pain model (von Frey filament test). Type of assay: in vivo. As to conditions: for pain threshold of diseased limb (von Frey filament test): oral administration of 30 mg/kg, neuropathic pain model mice, versus vehicle administration group; for analgesic activity: oral administration, mouse neuropathic pain model (FIG. 1). The protocol:
Mouse neuropathic pain model was prepared according to the method of Tozaki-Saitoh H. et al. (Tozaki-Saitoh H., Tsuda M., Miyata H., Ueda K., Kohsaka S. and Inoue K.; P2Y12 Receptors in Spinal Microglia Are Required for Neuropathic Pain after Peripheral Nerve Injury. Neuroscience, 28(19): 4949-4956 (2008)). Under isoflurane anesthesia, back hair of mice was extensively shaved, the shaved parts were wiped with rubbing alcohol, and the mice were fixed in the prone position on a heating pad. The skins were cut and opened along the dorsal median line on the upper and lower sides of the head end of the sacroiliac bone in a length of about 1 cm each, with confirming the head end of the bone with fingers. The left lateral paravertebral muscle was separated in the sacral region, and then the ligament was separated. The sacroiliae rim and the upper part thereof were cut and opened along the pyramid, and the transverse process of the first sacral vertebra (S1) was confirmed. The transverse process of S1 was removed, the fourth lumber nerve (L4) running just under the transverse process was confirmed and cut, and the operative wound was sutured.
The pain threshold (paw withdrawal threshold (g)) was measured by stimulating the soles of mice with each of seven von Frey filaments (Stoelting Co., TOUCH-TEST SENSORY EVALUATOR) that gave different stimulation strengths, and determining presence or absence of withdrawal response. The 50% threshold was calculated according to the up down method with reference to the method of Chaplan et al. (Chaplan S R, Bach F W, Pogrel J W, Chung J M, Yaksh T L: Quantitative assessment of tactile allodynia in the rat paw, J. Neurosci. Method, 53:55-63 (1994)).
For evaluation of efficacy, each of the compounds described in Examples 21 and 42 was orally administered to the neuropathic pain model mice with a sonde for oral administration in mice, and effect thereof on the pain threshold measured in the von Frey filament test was observed.

Twelve molecules from patent US9873683B2, “P2X4 receptor antagonist” (NIPPON CHEMIPHAR CO., LTD., priority 2013, dated 2018) can be followed below.

The structures appear in SMILES notation. Counter-ions that a name gives are not always drawn.

Sequence of human P2X4 receptor (Q99571 whole entry): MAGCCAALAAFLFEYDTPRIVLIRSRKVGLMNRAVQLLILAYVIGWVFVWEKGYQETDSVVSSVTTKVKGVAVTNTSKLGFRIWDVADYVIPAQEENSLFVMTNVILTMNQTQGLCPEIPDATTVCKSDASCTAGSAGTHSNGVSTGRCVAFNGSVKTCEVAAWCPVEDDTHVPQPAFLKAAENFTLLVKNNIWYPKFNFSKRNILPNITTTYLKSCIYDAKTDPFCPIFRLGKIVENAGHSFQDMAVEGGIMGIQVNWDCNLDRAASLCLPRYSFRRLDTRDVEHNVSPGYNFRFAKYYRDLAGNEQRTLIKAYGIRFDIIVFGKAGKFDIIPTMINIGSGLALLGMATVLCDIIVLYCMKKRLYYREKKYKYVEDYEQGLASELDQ

In general, IC50 refers to the midpoint of a concentration-inhibition curve. For the molecule `COc1cccc(CCc2nccn2-c2ccc(N3C(=O)CC(=O)Nc4c3ccc3ccccc43)cc2)c1.Cl` [Example 42, 5-[4-[2-(3-Methoxyphenethyl)-1H-imidazol-1-yl]phenyl]-1H-naphtho[1,2-b][1,4]diazepine-2,4(3H,5H)-dione hydrochloride], the IC50 at human P2X4 receptor came out at 92 nM. Moreover, in assay [1], the “pain threshold of diseased limb (von Frey filament test)” value was “increased the pain threshold of diseased limb” and the analgesic activity result was “superior analgesic activity”.

Regarding `Cl.O=C1CC(=O)N(c2ccc(-n3ccnc3CCc3ccccc3)cc2)c2ccc3ccccc3c2N1` [Example 21, 5-[4-(2-Phenethyl-1H-imidazol-1-yl)phenyl]-1H-naphtho[1,2-b][1,4]diazepine-2,4(3H,5H)-dione hydrochloride], the IC50 at human P2X4 receptor was determined as 78 nM. In addition, in assay [1], the “pain threshold of diseased limb (von Frey filament test)” value is listed as “increased the pain threshold of diseased limb” and the analgesic activity entry is on record as “superior analgesic activity”.

For the molecule `O=C1CC(=O)N(c2ccc(-n3ccnc3CCc3ccccn3)cc2)c2ccc3ccccc3c2N1` [Example 71, 5-[4-[[2-(Pyridin-2-yl)ethyl]-1H-imidazol-1-yl]phenyl]-1H-naphtho[1,2-b][1,4]diazepine-2,4(3H,5H)-dione dihydrochloride], the IC50 at human P2X4 receptor came out at 590 nM.

Consider `O=C1CC(=O)N(c2ccc(-c3nccn3CCc3ccccc3)c(O)c2)c2ccc3ccccc3c2N1` [Example 65, 5-[3-Hydroxy-4-(1-phenethyl-1H-imidazol-2-yl)-phenyl]-1H-naphtho[1,2-b][1,4]diazepine-2,4(3H,5H)-dione], for which the IC50 at human P2X4 receptor is 130 nM.

For `COc1c(F)cccc1CCc1nccn1-c1ccc(N2C(=O)CC(=O)Nc3c2ccc2ccccc32)cc1` [Example 83, 5-[4-[(2-(3-Fluoro-2-methoxyphenyl)ethyl)-1H-imidazol-1-yl]phenyl]-1H-naphtho[1,2-b][1,4]diazepine-2,4(3H,5H)-dione hydrochloride], at human P2X4 receptor, the IC50 was 87 nM.

Turning to `Cc1cccc(CCc2nnnn2-c2ccc(N3C(=O)CC(=O)Nc4c3ccc3ccccc43)cc2)n1` [Example 30, 5-[4-[5-[2-(6-Methylpyridin-2-ylethyl)-1H-tetrazol-1-yl]-phenyl]-1H-naphtho[1,2-b][1,4]diazepine-2,4(3H,5H)-dione hydrochloride], the IC50 at human P2X4 receptor is 270 nM.

For `COc1ccccc1CCc1nccn1-c1ccc(N2C(=O)CC(=O)Nc3c2ccc2ccccc32)cc1` [Example 32, 5-[4-[(2-(2-Methoxyphenyl)ethyl)-1H-imidazol-1-yl]phenyl]-1H-naphtho[1,2-b][1,4]diazepine-2,4(3H,5H)-dione hydrochloride], the concentration for half-maximal inhibition (IC50) on human P2X4 receptor was found to be 180 nM.

On to `Cc1cccc(C)c1CCc1nccn1-c1ccc(N2C(=O)CC(=O)Nc3c2ccc2ccccc32)cc1` [Example 37, 5-[4-[2-(2,6-Dimethylphenylethyl)-1H-imidazol-1-yl]phenyl]-1H-naphtho[1,2-b][1,4]diazepine-2,4(3H,5H)-dione hydrochloride], for which the half-inhibitory concentration (IC50) on human P2X4 receptor was 79 nM.

Turning to `O=C1CC(=O)N(c2ccc(-n3ccnc3COc3ccccc3)cc2)c2ccc3ccccc3c2N1` [Example 68, 5-[4-[2-(Phenoxymethyl)-1H-imidazol-1-yl]phenyl]-1H-naphtho[1,2-b][1,4]diazepine-2,4(3H,5H)-dione], the IC50 on human P2X4 receptor is 790 nM.

Regarding `NC(=O)c1ccccc1CCc1nccn1-c1ccc(N2C(=O)CC(=O)Nc3c2ccc2ccccc32)cc1` [Example 55, 2-[2-[1-[4-(2,4-Dioxo-3,4-dihydro-1H-naphtho[1,2-b][1,4]diazepin-5(2H)-yl)phenyl]-1H-imidazol-2-yl]ethyl]benzamide], the IC50 on human P2X4 receptor is 340 nM.

With `COc1ccccc1Cc1nnnn1-c1ccc(C2=NCC(=O)Nc3c2ccc2ccccc32)cc1` [Example 19, 5-[4-[5-(2-Methoxybenzyl)-1H-tetrazol-1-yl]phenyl]-1H-naphtho[1,2-e][1,4]diazepin-2(3H)-one], the IC50 on human P2X4 receptor stood at 320 nM.

In the case of `O=C1CC(=O)N(c2ccc(-n3nnnc3CCc3ccccc3)cc2)c2ccc3ccccc3c2N1` [Example 4, 5-[4-(5-Phenethyl-1H-tetrazol-1-yl)phenyl]-1H-naphtho[1,2-b][1,4]diazepine-2,4(3H,5H)-dione], on human P2X4 receptor, the IC50 was 44 nM.
